In US20020069423A1 (priority 2000, published 2002):

How the values were obtained:
[1] = molecular target: PrP^ac (Mus musculus, UniProt P04925); details: cell culture; not tested in animal models; cited from earlier work
[2] = test system: untransfected bovine fetal fibroblasts (BFF cells); format: cell-based
[3] = molecular target: PrP^ac (Mesocricetus auratus, UniProt P04273); details: scrapie-infected hamsters, controlled study; cited from earlier work
PrP^ac (Mesocricetus auratus, UniProt P04273), sequence (P04273 23-231 limits assumed): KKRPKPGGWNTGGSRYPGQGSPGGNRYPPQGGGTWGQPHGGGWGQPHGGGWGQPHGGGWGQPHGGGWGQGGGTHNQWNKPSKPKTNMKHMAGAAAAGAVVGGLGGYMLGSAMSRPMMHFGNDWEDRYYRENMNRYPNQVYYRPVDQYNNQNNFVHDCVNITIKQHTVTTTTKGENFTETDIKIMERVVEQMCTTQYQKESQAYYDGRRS

PrP^ac (Mus musculus, UniProt P04925), sequence (P04925 23-230 limits assumed): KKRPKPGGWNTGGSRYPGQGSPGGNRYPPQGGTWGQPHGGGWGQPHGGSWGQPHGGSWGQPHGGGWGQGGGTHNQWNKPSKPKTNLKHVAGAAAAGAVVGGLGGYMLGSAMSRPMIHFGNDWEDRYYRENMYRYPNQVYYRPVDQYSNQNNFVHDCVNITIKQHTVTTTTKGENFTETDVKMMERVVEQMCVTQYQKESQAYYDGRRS

Question: Which “effect on accumulation of PrP^ac” value [1] does the source give for `Nc1c(/N=N/c2ccc(-c3ccc(/N=N/c4cc(S(=O)(=O)O)c5ccccc5c4N)cc3)cc2)cc(S(=O)(=O)O)c2ccccc12` [Congo red] here?
Answer: prevent accumulation of PrP^ac

Question: For `CN[C@@H]1[C@@H](O)[C@@H](O[C@@H]2[C@@H](O)[C@H](O[C@H]3O[C@H]([C@@H](C)O)[C@@H](O)[C@H](O)[C@H]3N)[C@@H](N)C[C@H]2N)OC[C@]1(C)O` [G418, geneticin (G418)], which “concentration sufficient to kill non-neomycin containing BFF cells but allow rapid growth of BFF cells with transfected neomycin gene” value [2] is on record?
Answer: 400 µg/mL

Question: What about the “concentration that will sufficiently kill non-neomycin containing BEF cells but allow proliferation of cells with transfected neomycin gene” value [2] of the same compound?
Answer: 400 µg/mL

Question: And the “lag time in drug selection” value [2]?
Answer: approximately 3 days

Question: What about the “time of drug selection until BFF cells were dead” value [2] of the same compound?
Answer: ≤ 3 days

Question: With `C[C@@H]1[C@H](O)[C@@H](C)/C=C/C=C/C=C/C=C/C=C/C=C/C=C/[C@H](O[C@@H]2O[C@H](C)[C@@H](O)[C@H](N)[C@@H]2O)C[C@@H]2O[C@](O)(C[C@@H](O)C[C@@H](O)[C@H](O)CC[C@@H](O)C[C@@H](O)CC(=O)O[C@H]1C)C[C@H](O)[C@H]2C(=O)O` [amphotericin B] as the compound, how does the “effect on accumulation of PrP^ac” value [3] read?
Answer: delayed the accumulation of PrP^ac

Question: Which “effect on accumulation of PrP^ac” value [1] does the source give for pentosan polysulfate here?
Answer: prevent accumulation of PrP^ac
